Assay results from patent publication US11168078B2, “Sulfoximine, sulfonimidamide, sulfondiimine and diimidosulfonamide compounds as inhibitors of indoleamine 2,3-dioxygenase” (Shanghai Fochon Pharmaceutical Co., Ltd., priority 2016, dated 2021).

What was measured:
[1] = molecular target: T1, IDO (Homo sapiens, UniProt P14902); experiment: IDO Cell-Based LC/MS Assay; details: Hela cells, 100 ng/mL recombinant human interferon-gamma, 20 hours, LC/MS readout
T1 construct: endogenous in cells; host or cells: HeLa cells stimulated with recombinant human interferon-gamma
T1 sequence (P14902 whole entry): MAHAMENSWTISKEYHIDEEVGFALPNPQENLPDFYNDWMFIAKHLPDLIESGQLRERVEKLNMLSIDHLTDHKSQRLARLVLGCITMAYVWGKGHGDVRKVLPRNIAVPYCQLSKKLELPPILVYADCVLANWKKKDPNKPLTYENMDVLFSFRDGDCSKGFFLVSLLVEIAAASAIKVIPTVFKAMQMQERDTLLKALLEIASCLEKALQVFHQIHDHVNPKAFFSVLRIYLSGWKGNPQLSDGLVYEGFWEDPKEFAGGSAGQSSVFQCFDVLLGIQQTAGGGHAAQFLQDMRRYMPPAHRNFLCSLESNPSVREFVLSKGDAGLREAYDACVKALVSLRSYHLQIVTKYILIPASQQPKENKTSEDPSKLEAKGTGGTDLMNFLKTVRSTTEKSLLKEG
Source text: IDO Cell-Based LC/MS Assay
Materials: RPMI 1640 (phenol red free) (Invitrogen Cat. No. 11835030), Fetal Bovine Serum (Invitrogen Cat. No. 10099141), Penicillin-Streptomycin (Invitrogen Gibco Cat. No. 15140-122), recombinant human interferon-gamma (R&D system, Cat. No. 285-IF-100), 5% (w/v) trichloroacetic acid (Alfa Aesar Cat. No. All 156), DMSO (Sigma, Cat. No. D2650), 96 wells_compound plate (Axygen, Cat. No. WIPP02280), 96 wells_assay plate (Greiner, Cat. No. 655090)
The concentrations of test compounds varied from 5 μM to 0.76 nM with 3-fold dilution, 9 points, in duplicates.
Hela cells were seeded at 40,000 cells per well with RPMI/phenol red free media containing 10% FBS in a 96-well tissue culture plate. After adding compound to cells, 100 ng/mL of recombinant human interferon-gamma was added to activate IDO signaling. The cells were incubated for 20 hours in 37° C. incubator with 5% CO2. Compound treatment was stopped by adding 5% trichloroacetic acid. Subsequently, the cell plate was further incubated at 50° C. for 30 minutes. After precipitation, the supernatant was collected and measured by triple quadrupole mass spectrometer (AB Sciex 4000), coupled with HPLC Shimadzu EC 20 AD and autosampler CTC PAL. Curves are fit by XLFIT5 as % inhibition vs. log [compound concentration] using a 4 parameters logistic model 205.
(§1) Select compounds prepared as described above were assayed according to the biological procedures described herein.

[2] = Rat PK; type: in vivo; details: po, male SD rats, 5 mg/kg p.o., suspended in 0.5% methylcellulose in water, plasma
Experimental: Each test compounds was suspended in 0.5% methylcellulose in water.
Grouping male SD rats was administered with test compound at a dose of 5 mg/kg by oral. After administering, blood samples were collected at time points of 0.50, 1.0, 2.0, 4.0, 6.0, 8.0 and 24.0 h. Standard curve was plotted based on concentrations of the samples in a suitable range, and the concentration of test compounds in plasma samples were determined by using LC-MS/MS. Pharmacokinetic parameters were calculated according to plasma concentration-time curve by Phoenix WinNonLin 6.1 software.

[3] = molecular target: T1, IDO; experiment: IDO Cell-Based NEK Green Assay (NFK Green, N-formyl kynurenine level); details: Hela cells, 1 mM L-Tryptophan, 100 ng/mL recombinant human interferon-gamma, 2 days, NFK Green fluorescence
Experimental: IDO Cell-Based NEK Green Assay
Materials: RPMI 1640 (phenol red free) (Invitrogen Cat. No. 11835030), Fetal Bovine Serum (Invitrogen Cat. No. 10099141), Penicillin-Streptomycin (Invitrogen Gibco Cat. No. 15140-122), Cellular assay kit (NTRC, Cat. No. NTRC-GSCell-1K), DMSO (Sigma, Cat. No. D2650), 384 wells_compound plate (Greiner, Cat. No. 781280), 384 wells_assay plate (Greiner, Cat. No. 781091)
The concentrations of test compounds varied from 5 μM to 0.76 nM with 3-fold dilution, 10 points, in duplicates.
Hela cells were seeded at 8,000 cells per well with RPMI/phenol red free media containing 10% FBS in a 384-well tissue culture plate. Mixture of compounds and 1 mM L-Tryptophan were added to cells; and then the recombinant human interferon-gamma was added at the final concentration of 100 ng/mL to activate IDO signaling. The cells were incubated for 2 days in 37° C. incubator with 5% CO2. After that, NFK Green was used to detect the N-formyl kynurenine level by following the commercial kit instruction. The fluorescent signal was measured by Envision plate Reader (excitation, 400/25; emission, 510/20). Curves are fit by XLFIT5 as % inhibition vs. log [compound concentration] using a 4 parameters logistic model 205.
as §1

Row | IC50 [1] [nM] | AUC(0-inf) [2] [ng·h/mL] | AUC(0-t) [2] [ng·h/mL] | Cmax [2] [ng/mL] | half-life [2] [h] | IC50 [3] [nM] | SMILES
1 | 54 | 4030 | 3840 | 1500 | 3.83 |  | CS(C)(=O)=NCCNc1nonc1/C(=N/O)Nc1ccc(F)c(Br)c1 [Example 1, (Z)—N-(3-bromo-4-fluorophenyl)-4-((2-((dimethyl(oxo)-λ^6-sulfanylidene)amino)ethyl)amino)-N′-hydroxy-1,2,5-oxadiazole-3-carboximidamide]
2 | 18.6 |  |  |  |  |  | CS(=N)(=O)NCCCNc1nonc1C(=NO)Nc1ccc(F)c(Br)c1 (centres unmarked) [Example 8, (Z)—N-(3-bromo-4-fluorophenyl)-N′-hydroxy-4-((3-(methylsulfonoimidamido)propyl)amino)-1,2,5-oxadiazole-3-carboximidamide]
3 |  | 1120 | 1100 | 469 | 1.19 | 14.5 | CS(C)(=O)=NCCNc1nonc1/C(=N/O)Nc1ccc(F)c(Cl)c1 [Example 28, (Z)-N-(3-chloro-4-fluorophenyl)-4-((2-((dimethyl(oxo)-λ^6-sulfanylidene)amino)ethyl)amino)-N′-hydroxy-1,2,5-oxadiazole-3-carboximidamide]
4 | 63.7 |  |  |  |  |  | CS(=N)(=O)NCCNc1nonc1C(=NO)Nc1ccc(F)c(Br)c1 (centres unmarked) [Example 6, (Z)—N-(3-bromo-4-fluorophenyl)-N′-hydroxy-4-((2-(methylsulfonoimidamido)ethyl)amino)-1,2,5-oxadiazole-3-carboximidamide]

Further lines, the compound ahead of its results:

Row | SMILES | IC50 [1] [nM] | AUC(0-inf) [2] [ng·h/mL] | AUC(0-t) [2] [ng·h/mL] | Cmax [2] [ng/mL] | half-life [2] [h] | IC50 [3] [nM]
5 | CCS(=N)(=O)NCCNc1nonc1C(=NO)Nc1ccc(F)c(Br)c1 (centres unmarked) [Example 7, (Z)—N-(3-bromo-4-fluorophenyl)-4-((2-(ethylsulfonoimidamido)ethyl)amino)-N′-hydroxy-1,2,5-oxadiazole-3-carboximidamide] | 6.6 | 1450 | 1440 | 496 | 3.47 | 
6 | NS(=O)(=O)NCCNc1nonc1C(=NO)Nc1ccc(F)c(Br)c1 [Reference Compound 1, (Z)—N-(3-bromo-4-fluorophenyl)-N′-hydroxy-4-((2-(sulfamoylamino)ethyl)amino)-1,2,5-oxadiazole-3-carboximidamide, reference compound] |  | 924 | 880 | 169 | 2.48 | 
7 | CS(=N)(=O)NCCNc1nonc1/C(=N/O)Nc1ccc(F)c(C(F)(F)F)c1 (centres unmarked) [Example 14, (Z)—N-(4-fluoro-3-(trifluoromethyl)phenyl)-N′-hydroxy-4-((2-(methylsulfonoamidimidamido)ethyl)amino)-1,2,5-oxadiazole-3-carboximidamide] | 20.1 |  |  |  |  | 
8 | CS(=N)(=O)NCCNc1nonc1/C(=N/O)Nc1cccc(C(F)(F)F)c1 (centres unmarked) [Example 15, (Z)—N′-hydroxy-4-((2-(methylsulfonoamidimidamido)ethyl)amino)-N-(3-(trifluoromethyl)phenyl)-1,2,5-oxadiazole-3-carboximidamide] | 54.3 |  |  |  |  | 
